Experimental data taken from US6821289B2, “Efficacy and safety of photodynamic therapy by multiple application protocols with photosensitizers that show extended tumor retention” (CeramOptec Industries, Inc., priority 2003, dated 2004).

Tests used:
tumor [1] = settings: mice; cited from earlier work
[2] = test system: chemically induced rat skin tumor; settings: cited from earlier work
tumor [3] = test: PS concentration over time in tumor and normal tissue during repetitive administration of pheophorbide a (FIG. 1); assay type: in vivo
Protocol: FIG. 1 Graphic representation of PS concentration over time in tumor and normal tissue, for example the skin, during repetitive administration of pheophorbide a.
FIG. 1 illustrates preferred intervals between administration of doses of pheophorbide a in cancerous tissue. As is shown in the figure, upon a first administration the concentration of pheophorbide a is initially high and slowly decreases. The concentration in healthy tissue quickly decreases and levels off, where at 24 hours the concentration in healthy tissue is very low and has reached a point where the concentration decreases very slowly. After the first 24 hour interval, the concentration in the tumor is 17 times that in healthy cells. The same effect is observed after the second administration of pheophorbide a. As a result, after a total of four administrations and a total time of 96 hours, the concentration of pheophorbide a in healthy tissues remains very small, and the concentration in the tumor is greater by a factor of 68.

[4] = test system: xenografted human pancreatic tumor; settings: cited from earlier work
pancreatic tumor = settings: rats, cited from earlier work
rat pituitary tumor = settings: cited from earlier work
pancreas carcinoma = test: PDT of a pancreas carcinoma, four intravenous administrations (Example 1); assay type: in vivo; settings: 100-200 J/cm^2 at approximately 100 mW/cm^2
Protocol: A formulation of the PS pheophorbide a is administered intravenously 4 times as described above, with doses ranging from approximately 2 to 20 mg of PS per kilogram of body weight, achieving an at least a 50:1 ratio of PS content in the carcinoma to the PS content in the surrounding healthy pancreatic tissue. Light guiding fibres are placed within the tumor under imaging guidance. The tumor is irradiated with an energy density sufficient to necrotize the diseased tissue, preferably 100-200 J/cm^2, at a power density of approximately 100 mW/cm^2.

Row | concentration in tumor relative to healthy tissues (tumor [3]; after four administrations, total time 96 hours) [factor] | concentration in tumor relative to healthy cells (tumor [3]; after the first 24 hour interval, one administration) [times] | effect on surrounding tissue upon irradiation (pancreas carcinoma) | Molecule | change in concentration in plasma, single versus double injections (tumor [1]) | relative concentration in skin and tumor tissue, single versus double injections (tumor [1]) | time for which pheophorbide a content remained high in tumor ([2]; chemically induced rat skin tumor, after administration) | time at which pheophorbide a content of normal skin reached a basal value ([2]; rat normal skin, after administration) [h] | basal normal skin content as fraction of tumor pheophorbide a content ([2]; rat, 24 hours after administration) | time at which PS content of normal skin reached a low basal value ([4]; nude mice normal skin) [h] | change of pheophorbide a content of tumor ([4]; xenografted human pancreatic tumor in nude mice, between 4 and 48 hours after administration) | time at which pheophorbide a content of normal pancreas reached a low constant value (pancreatic tumor; normal pancreas) [h] | time for which content of pancreatic tumor remained elevated (pancreatic tumor; pancreatic tumor) | time at which content of normal pituitary gland reached a basal value (rat pituitary tumor; rat normal pituitary gland) [h] | change of pheophorbide a content of tumor (rat pituitary tumor; rat pituitary tumor, during 6 hours after administration)
1 | – | – | – | Oc1cccc(-c2c3nc(c(-c4cccc(O)c4)c4ccc([nH]4)c(-c4cccc(O)c4)c4nc(c(-c5cccc(O)c5)c5ccc2[nH]5)CC4)C=C3)c1 [Foscan, meta-tetrahydroxyphenylchlorin] | not significantly different | nor was the relative concentration in skin and tumor tissue significantly different | – | – | – | – | – | – | – | – | –
2 | 68 | 17 | remains intact | pheophorbide a | – | – | up to 48 hours | ≤ 24 | one tenth | 24 | did not decrease | 24 | at least 48 hours | 4 | decreased slowly
